Laboratory results from ChEMBL document CHEMBL5715956, “Selective Targeting of Bromodomains of the Bromodomain-PHD Fingers Family Impairs Osteoclast Differentiation” (ACS Chem Biol, 2017).

Key:
[1] = target: Transcription initiation factor TFIID subunit 1 (Homo sapiens) (UniProt P21675); conditions: dose 10.0 µM
[2] = target: Beta-1 adrenergic receptor (Homo sapiens) (UniProt P08588); experiment: Inhibition of Beta1 (unknown origin) at 10 uM relative to control
[3] = target: Adrenergic receptor alpha-2 (Homo sapiens) (UniProt P08913+P18825+P18089); experiment: Binding affinity to Alpha 2 receptor (unknown origin) assessed as specific binding at 10 uM relative to control; assay type: protein assay
[4] = target: Bromodomain-containing protein 4 (Homo sapiens) (UniProt O60885); conditions: dose 10.0 µM
[5] = target: 5-hydroxytryptamine receptor 7 (Homo sapiens) (UniProt P34969); experiment: Inhibition of 5HT7 (unknown origin) at 10 uM relative to control
Chain of 5-hydroxytryptamine receptor 7 (Homo sapiens) (P34969 whole entry): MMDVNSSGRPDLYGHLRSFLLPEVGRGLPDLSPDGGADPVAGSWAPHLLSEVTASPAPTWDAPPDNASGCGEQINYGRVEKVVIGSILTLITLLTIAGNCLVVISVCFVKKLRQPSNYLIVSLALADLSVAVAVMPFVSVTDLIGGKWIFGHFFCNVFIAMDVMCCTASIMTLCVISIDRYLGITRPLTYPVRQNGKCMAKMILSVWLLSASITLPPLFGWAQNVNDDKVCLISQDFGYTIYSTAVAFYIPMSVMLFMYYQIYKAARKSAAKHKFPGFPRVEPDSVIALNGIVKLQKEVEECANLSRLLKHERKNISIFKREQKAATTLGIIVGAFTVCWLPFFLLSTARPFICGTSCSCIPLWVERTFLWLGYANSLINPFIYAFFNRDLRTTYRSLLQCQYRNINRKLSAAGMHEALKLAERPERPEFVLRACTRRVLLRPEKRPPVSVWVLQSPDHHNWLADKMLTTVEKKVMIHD

[6] = target: Bromodomain-containing protein 4 (Homo sapiens) (UniProt O60885); experiment: Binding affinity to BRD4 BD1 (unknown origin) assessed as change in entropy at 14 uM by Isothermal titration calorimetry
[7] = target: T1, Bromodomain and PHD finger-containing protein 3 (Homo sapiens) (UniProt Q9ULD4); experiment: Binding affinity to BRPF3 (unknown origin) assessed as change in enthalpy at 12 uM by Isothermal titration calorimetry
T1 sequence (whole entry): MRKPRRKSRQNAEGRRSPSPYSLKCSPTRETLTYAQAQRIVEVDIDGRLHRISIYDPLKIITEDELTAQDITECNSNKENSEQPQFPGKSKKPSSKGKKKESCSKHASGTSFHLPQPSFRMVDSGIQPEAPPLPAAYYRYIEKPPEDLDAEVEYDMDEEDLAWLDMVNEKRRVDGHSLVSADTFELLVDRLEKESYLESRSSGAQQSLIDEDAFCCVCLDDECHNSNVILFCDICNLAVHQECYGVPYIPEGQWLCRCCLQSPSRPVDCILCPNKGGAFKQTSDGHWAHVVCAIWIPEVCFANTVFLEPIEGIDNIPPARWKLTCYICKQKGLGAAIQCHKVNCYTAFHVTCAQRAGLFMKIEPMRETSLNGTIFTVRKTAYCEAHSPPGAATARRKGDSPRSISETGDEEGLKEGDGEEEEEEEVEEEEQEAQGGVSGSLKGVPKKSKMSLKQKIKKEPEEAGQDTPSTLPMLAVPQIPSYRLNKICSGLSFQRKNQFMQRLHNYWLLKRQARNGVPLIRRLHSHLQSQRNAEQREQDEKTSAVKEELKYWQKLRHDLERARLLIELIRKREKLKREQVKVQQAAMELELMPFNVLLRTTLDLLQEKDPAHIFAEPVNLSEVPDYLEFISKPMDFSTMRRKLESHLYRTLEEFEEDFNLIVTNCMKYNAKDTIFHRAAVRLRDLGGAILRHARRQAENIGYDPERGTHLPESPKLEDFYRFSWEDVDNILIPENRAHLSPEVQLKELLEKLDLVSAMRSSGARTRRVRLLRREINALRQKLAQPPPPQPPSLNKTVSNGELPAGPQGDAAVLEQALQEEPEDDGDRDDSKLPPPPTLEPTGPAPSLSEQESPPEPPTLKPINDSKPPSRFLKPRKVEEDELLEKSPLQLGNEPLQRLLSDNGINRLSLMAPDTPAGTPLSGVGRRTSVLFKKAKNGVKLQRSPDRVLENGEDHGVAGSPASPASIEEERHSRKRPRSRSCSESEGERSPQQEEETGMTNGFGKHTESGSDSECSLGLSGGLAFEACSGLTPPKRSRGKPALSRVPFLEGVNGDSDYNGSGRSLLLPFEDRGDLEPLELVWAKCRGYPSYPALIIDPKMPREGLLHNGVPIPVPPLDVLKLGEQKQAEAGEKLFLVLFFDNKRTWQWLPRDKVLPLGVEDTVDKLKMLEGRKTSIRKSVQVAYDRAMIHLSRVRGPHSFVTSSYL

[8] = target: Transcription initiation factor TFIID subunit 1-like (Homo sapiens) (UniProt Q8IZX4); conditions: dose 10.0 µM
[9] = target: Bromodomain-containing protein 2 (Homo sapiens) (UniProt P25440); conditions: dose 10.0 µM
Chain of Bromodomain-containing protein 2 (Homo sapiens) (P25440 whole entry, looked up): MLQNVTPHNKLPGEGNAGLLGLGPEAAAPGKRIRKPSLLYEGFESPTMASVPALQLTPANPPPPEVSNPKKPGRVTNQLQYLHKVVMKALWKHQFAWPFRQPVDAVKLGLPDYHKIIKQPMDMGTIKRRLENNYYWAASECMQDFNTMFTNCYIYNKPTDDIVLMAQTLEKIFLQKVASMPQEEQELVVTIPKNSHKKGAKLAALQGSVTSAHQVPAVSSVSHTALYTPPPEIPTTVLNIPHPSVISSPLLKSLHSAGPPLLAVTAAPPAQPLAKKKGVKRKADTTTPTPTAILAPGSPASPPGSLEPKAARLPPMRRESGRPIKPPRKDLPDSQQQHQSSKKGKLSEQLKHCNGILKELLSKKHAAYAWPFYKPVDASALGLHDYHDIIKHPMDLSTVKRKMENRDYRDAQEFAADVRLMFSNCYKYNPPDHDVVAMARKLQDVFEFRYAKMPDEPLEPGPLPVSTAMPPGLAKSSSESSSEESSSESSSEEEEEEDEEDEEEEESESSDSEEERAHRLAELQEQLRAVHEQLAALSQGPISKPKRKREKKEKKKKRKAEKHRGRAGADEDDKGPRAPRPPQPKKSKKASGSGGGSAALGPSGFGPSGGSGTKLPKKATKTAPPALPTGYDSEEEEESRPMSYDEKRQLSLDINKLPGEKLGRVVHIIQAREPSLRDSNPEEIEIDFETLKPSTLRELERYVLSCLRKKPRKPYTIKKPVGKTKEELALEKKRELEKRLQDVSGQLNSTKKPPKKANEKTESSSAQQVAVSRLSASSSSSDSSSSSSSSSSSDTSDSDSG

[10] = target: Tyrosine-protein kinase BAZ1B (Homo sapiens) (UniProt Q9UIG0); conditions: dose 10.0 µM
Chain of Tyrosine-protein kinase BAZ1B (Homo sapiens) (Q9UIG0 whole entry): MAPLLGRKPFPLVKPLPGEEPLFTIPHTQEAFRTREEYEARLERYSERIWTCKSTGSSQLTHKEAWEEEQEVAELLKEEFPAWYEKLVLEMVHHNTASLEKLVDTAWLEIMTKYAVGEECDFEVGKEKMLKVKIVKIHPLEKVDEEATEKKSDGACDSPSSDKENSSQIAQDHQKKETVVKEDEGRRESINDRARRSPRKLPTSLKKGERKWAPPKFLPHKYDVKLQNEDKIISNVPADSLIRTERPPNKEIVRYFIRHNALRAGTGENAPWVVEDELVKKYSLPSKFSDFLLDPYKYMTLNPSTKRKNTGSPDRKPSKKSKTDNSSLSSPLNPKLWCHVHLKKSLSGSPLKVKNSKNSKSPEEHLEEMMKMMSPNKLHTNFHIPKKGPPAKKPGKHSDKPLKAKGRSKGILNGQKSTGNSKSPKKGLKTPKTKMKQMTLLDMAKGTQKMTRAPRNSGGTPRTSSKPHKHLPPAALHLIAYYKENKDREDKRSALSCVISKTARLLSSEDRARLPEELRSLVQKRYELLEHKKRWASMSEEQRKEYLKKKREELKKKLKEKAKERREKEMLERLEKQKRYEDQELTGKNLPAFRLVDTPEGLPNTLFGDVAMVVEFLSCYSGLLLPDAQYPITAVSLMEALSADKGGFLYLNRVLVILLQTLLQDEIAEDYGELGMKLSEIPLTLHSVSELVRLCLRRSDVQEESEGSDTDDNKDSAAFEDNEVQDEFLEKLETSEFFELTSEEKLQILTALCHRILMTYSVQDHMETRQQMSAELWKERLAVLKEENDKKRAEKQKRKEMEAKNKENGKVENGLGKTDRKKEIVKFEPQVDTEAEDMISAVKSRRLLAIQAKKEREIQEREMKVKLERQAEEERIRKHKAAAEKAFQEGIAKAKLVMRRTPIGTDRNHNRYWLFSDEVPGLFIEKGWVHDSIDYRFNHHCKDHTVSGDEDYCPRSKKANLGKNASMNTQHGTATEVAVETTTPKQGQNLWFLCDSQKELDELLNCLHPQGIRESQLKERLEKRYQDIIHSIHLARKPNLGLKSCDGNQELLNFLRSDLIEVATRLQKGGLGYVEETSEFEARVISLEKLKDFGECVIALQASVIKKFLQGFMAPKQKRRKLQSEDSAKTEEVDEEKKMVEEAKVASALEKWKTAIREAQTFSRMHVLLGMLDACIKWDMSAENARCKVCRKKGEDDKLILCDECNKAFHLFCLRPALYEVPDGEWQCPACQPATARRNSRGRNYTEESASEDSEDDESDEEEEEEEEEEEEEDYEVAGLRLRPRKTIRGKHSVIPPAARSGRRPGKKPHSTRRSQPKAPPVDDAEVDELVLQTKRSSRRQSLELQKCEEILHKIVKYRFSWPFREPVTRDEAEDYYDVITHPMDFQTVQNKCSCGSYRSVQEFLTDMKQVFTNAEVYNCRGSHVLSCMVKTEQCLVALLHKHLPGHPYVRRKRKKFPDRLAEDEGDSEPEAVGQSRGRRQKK

[11] = target: Transcription intermediary factor 1-alpha (Homo sapiens) (UniProt O15164); conditions: dose 10.0 µM
[12] = target: Bromodomain adjacent to zinc finger domain protein 2B (Homo sapiens) (UniProt Q9UIF8); conditions: dose 10.0 µM
[13] = target: Nuclear body protein SP140 (Homo sapiens) (UniProt Q13342); conditions: dose 10.0 µM
Chain of Nuclear body protein SP140 (Homo sapiens) (Q13342 whole entry): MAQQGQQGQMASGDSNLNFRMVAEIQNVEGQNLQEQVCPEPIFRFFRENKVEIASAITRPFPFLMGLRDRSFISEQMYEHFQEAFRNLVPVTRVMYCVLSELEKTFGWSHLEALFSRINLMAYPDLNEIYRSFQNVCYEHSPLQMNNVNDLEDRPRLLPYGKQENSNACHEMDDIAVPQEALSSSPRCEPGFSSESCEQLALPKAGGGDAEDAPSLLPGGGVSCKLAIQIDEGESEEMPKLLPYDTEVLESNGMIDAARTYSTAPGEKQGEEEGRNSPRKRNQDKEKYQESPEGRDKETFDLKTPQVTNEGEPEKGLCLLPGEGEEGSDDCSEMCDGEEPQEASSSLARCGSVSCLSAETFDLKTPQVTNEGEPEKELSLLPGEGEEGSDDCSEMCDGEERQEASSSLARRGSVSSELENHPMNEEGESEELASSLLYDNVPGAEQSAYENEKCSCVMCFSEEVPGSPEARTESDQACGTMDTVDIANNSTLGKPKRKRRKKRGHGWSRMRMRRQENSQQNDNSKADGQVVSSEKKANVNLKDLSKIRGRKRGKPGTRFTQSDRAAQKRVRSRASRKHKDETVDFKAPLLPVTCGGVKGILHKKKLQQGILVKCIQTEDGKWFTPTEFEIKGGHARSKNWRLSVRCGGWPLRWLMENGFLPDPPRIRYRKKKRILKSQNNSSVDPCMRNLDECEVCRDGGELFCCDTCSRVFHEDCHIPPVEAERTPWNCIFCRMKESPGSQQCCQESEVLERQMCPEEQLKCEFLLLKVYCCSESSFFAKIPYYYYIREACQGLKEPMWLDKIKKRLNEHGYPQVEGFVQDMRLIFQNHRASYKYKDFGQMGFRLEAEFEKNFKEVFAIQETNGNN

[14] = target: Protein polybromo-1 (Homo sapiens) (UniProt Q86U86); conditions: dose 10.0 µM

Chain of Beta-1 adrenergic receptor (Homo sapiens) (P08588 whole entry, looked up): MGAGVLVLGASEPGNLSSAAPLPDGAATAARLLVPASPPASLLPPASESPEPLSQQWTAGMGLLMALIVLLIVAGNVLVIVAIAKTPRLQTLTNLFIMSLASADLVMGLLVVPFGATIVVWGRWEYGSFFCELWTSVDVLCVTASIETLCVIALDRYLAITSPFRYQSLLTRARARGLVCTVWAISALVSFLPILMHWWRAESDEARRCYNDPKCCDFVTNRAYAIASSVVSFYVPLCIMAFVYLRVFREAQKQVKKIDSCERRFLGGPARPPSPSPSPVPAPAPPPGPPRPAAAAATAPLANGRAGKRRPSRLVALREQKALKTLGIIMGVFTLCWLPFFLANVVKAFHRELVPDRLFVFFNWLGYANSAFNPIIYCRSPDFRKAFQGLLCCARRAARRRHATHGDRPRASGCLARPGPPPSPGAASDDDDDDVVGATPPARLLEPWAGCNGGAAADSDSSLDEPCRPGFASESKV

- ΔTm [1]: 0.2 °C
- inhibition [2]: 11%
- Activity [3]: 112%
- ΔTm [4]: 2 °C
- inhibition [5]: 2%
- deltaS [6]: 0.001 kcal/mol/K
- deltaH [7]: -7.37 kcal/mol
- ΔTm [8]: 1.4 °C
- ΔTm [9]: 0.7 °C
- ΔTm [10]: 0.3 °C
- ΔTm [11]: 1.6 °C
- ΔTm [12]: 0.9 °C
- ΔTm [13]: 0.1 °C
- ΔTm [14]: 0.8 °C
Compound: COc1cc2c(cc1NS(=O)(=O)c1ccc(Br)cc1C)n(C)c(=O)n2C
